Test results as given in paper PMC3718762, “Differential Disruption of EWS-FLI1 Binding by DNA-Binding Agents” (PLoS ONE, 2013).
Starred links: 1 amine or outer side, 2 acyl side, 3 side chain; linkers in the order of their positions; H or OH if unused. Positions of bridges follow the written chain, without caps; N, C: chain ends. Non-standard residues stand in square brackets, D forms with d. Residues, ends and D or L forms follow the SMILES beside them. Chains are numbered I, II in the order given. Actinocin(9to1) = Cc1c2oc3c(C)ccc(C(=O)[*:1])c3nc-2c(C(=O)[*:2])c(N)c1=O; NMeV = CN[C@H](C(=O)O)C(C)C; Sar = CNCC(=O)O

Assays:
Assay type in all cases: cell-based
[1] = tested on: RPS26 and TP53 loci; test: ChIP-qPCR, control loci in A673 cells; settings: 5 nM, 4 hrs, anti-FLI1 ChIP
Protocol: (§1) ChIP-qPCR was performed as previously described. Briefly, cells were treated with compounds for 4 hrs, then crosslinked, lysed, and chromatin fragmented. After ChIP, quantitative PCR was used to quantify NR0B1, p53, and RPS26 loci, and fold enrichment was determined by the formula: Fold enrichment = 2χ(Input Ct-ChIP Ct)/2χ(Input Ct-IgG Ct).
(§2) We used chromatin immunoprecipitation coupled with quantitative PCR (ChIP-qPCR) to assess effects of actinomycin D on EWS-FLI1 binding to chromatin in cells. A673 cells were treated with either actinomycin D at 5 nM, or vehicle. After crosslinking, chromatin was sheared and EWS-FLI1-DNA complexes were immunoprecipitated using an anti-FLI1 antibody. We used primers flanking the EWS-FLI1-binding site in the promoter of the NR0B1 gene to quantify binding of EWS-FLI1. We used RPS26 and TP53 as control loci since neither are bound by EWS-FLI [15] and we have shown that RPS26 and TP53 transcript levels were unaffected by actinomycin D treatment (Figure 2F). Without actinomycin D treatment, binding of EWS-FLI1 to the NR0B1 promoter was enriched 31-fold by comparison to IgG controls (Figure 4A, DMSO). Treatment of cells with actinomycin D reduced binding of EWS-FLI1 to the NR0B1 promoter to 4-fold (p = 0.0018; Figure 4A).

[2] = tested on: RPS26 and TP53 transcripts; test: Quantitative RT-PCR of control transcripts in A673 cells; settings: actinomycin D treatment (Figure 2F)
Protocol: Duplicate wells of A673 cells were treated overnight with different concentration of actinomycin D. RNA was extracted with absolutely mRNA purification kit from Stratagene. 0.5 µg total RNA was mixed with 1 µl iScript Reverse Transcriptase, 10 µl of 2× RT-PCR reaction mix for probes from Bio-Rad, 1 µl of NR0B1, RPS26 and TP53 probes from Life Technologies and H2O up to 20 µl total volume. RT-PCR was performed in an iCycler iQ with 50°C for 10 minutes for one cycle; 95°C, 15 seconds, 60°C 40 seconds for 40 cycles. Each RNA sample was technically duplicated, and relative abundance was calculated by the delta Ct method.

[3] = tested on: UbC promoter; test: UbC-Renilla luciferase reporter (internal control) in A673 cells; settings: Homo sapiens, 16 hours, read-out: IC50 for inhibition of UbC promoter activity
Protocol: Ewing sarcoma A673 cells at 50% confluence in 100 mm dishes were transfected with both 5.8 µg of pGL.3b-NR0B1 and 0.2 µg of pGL.3b-Ubc-RL reporter plasmids as above. Eight hours post-transfection, cells were trypsinized and 600 ul (2×10^5) of cells were added to each well of 24 well plates. 5 µl of different concentration of compounds or DMSO control were added to each well. Each treatment was performed in triplicate. Cells were incubated for 16 hours, then cells were lysed in 100 µl of lysis buffer and 10 µl of cell lysate was used for the dual luciferase assay. Renilla luciferase activity was used as an internal control for normalization of nonspecific transcriptional inhibition or cytotoxic effects. Experiments were repeated three times. IC50 values were calculated using Prism (Graphpad).
To determine the effect of compounds on EWS-FLI1 activity in cells, we used a reporter assay comprised of the NR0B1 promoter, a prototypical EWS-FLI1-regulated gene, driving expression of firefly luciferase. Renilla luciferase driven by the Ubiquitin C promoter (UbC-RL) was used as an internal control. Confirming prior studies, the NR0B1 promoter was verified to be highly responsive to EWS-FLI1, whereas the UbC promoter activity was not subject to regulation by EWS-FLI1 (Figure S1).

[4] = target: T1, EWS-FLI1 binding to the NR0B1 promoter (Homo sapiens, UniProt Q01543+Q01844); test: ChIP-qPCR, EWS-FLI1 binding to NR0B1 promoter in A673 cells; settings: 5 nM, 4 hrs, anti-FLI1 ChIP, DMSO 31-fold, p = 0.0018
T1 construct: EWS (EWSR1, Q01844) N-terminal portion, fusion partner; endogenous in cells; host or cells: A673 Ewing sarcoma cells
T1 sequence (Q01844+Q01543 with tags, fused parts or gaps): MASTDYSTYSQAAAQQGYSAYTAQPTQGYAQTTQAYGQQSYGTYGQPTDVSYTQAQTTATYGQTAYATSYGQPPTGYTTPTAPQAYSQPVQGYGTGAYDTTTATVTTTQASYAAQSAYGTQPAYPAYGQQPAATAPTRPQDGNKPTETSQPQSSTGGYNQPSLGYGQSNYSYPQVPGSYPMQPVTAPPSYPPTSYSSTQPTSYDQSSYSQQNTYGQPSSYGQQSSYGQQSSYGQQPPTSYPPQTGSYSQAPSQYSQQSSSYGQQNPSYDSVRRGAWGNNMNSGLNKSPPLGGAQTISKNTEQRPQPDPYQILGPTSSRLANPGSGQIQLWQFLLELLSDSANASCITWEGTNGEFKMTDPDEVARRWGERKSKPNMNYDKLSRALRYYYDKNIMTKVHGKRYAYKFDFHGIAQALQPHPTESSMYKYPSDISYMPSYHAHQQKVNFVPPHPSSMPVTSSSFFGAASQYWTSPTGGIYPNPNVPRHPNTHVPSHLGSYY
Protocol: as §1, §2

[5] = tested on: EWS-FLI1-induced genes; test: Gene expression profiling with GSEA in A673 cells; settings: 5 nM, 24 hours
Protocol: Ewing sarcoma A673 cells at 65% confluence were treated in duplicate with DMSO (0.2%) or 5 nM actinomycin D for 24 hours. RNA was extracted with an Absolutely RNA kit. 100 ng of total RNA was hybridized to Affymetrix Gene 1.0 ST Arrays (DFCI Microarray Core Facility). Array quality was verified before background correction, RMA normalization and log2 conversion using the Bioconductor R package affy (URL: http://www.bioconductor.org). Differential gene expression was determined using the limma Bioconductor package. Genes with a fold-change >2 and Benjamini-Hochberg-corrected p-value <0.01 were retained for further consideration. Gene expression data have been deposited in GEO (GSE45414) and can be accessed at URL: http://www.ncbi.nlm.nih.gov/geo/query/acc.cgi?acc=GSE45414.
Consistent with the enrichment of E2F targets among EWS-FLI1-induced genes we noted in the shRNA study above (Figure 3A), we also found down-regulation of this class of signatures in A673 cells treated with low-dose actinomycin D (Figure 3B, black circles).

With `Cc1c2oc3c(C)ccc(C(=O)N[C@@H]4C(=O)N[C@H](C(C)C)C(=O)N5CCC[C@H]5C(=O)N(C)CC(=O)N(C)[C@@H](C(C)C)C(=O)O[C@@H]4C)c3nc-2c(C(=O)N[C@@H]2C(=O)N[C@H](C(C)C)C(=O)N3CCC[C@H]3C(=O)N(C)CC(=O)N(C)[C@@H](C(C)C)C(=O)O[C@@H]2C)c(N)c1=O` [Actinomycin D] (I: T[dV]P[Sar][NMeV] / II: T[dV]P[Sar][NMeV]; ester I:1-I:C, II:1-II:C; linker I:N-II:N via Actinocin(9to1)) the “Effect on RPS26 or TP53 loci in ChIP” value [1] was “did not affect”, the “RPS26 and TP53 transcript levels” value [2] was “unaffected” and the IC50 [3] was 14 nM. The “Binding of EWS-FLI1 to the NR0B1 promoter, fold enrichment over IgG control” value [4] was 4 fold and the “Expression of EWS-FLI1-induced genes (GSEA)” value [5] was “repressed to a significant degree”.
